In brackets after ≈: the same amount, converted by molar mass. Where a SMILES comes first, the peptide text is derived from it.
How the values were obtained:
[1] = system: Acinetobacter baumannii KCTC 2508; experiment: Flow cytometry after PI staining (bacteria membrane); format: cell-based; conditions: peptide at concentration of MIC, 30 minutes at 37° C.
Experimental: To determine whether or not the peptides prepared by the method of Example 1 have any effect on bacteria membrane, an analysis was made by flow cytometry.
After that, the supernatant was removed by centrifuge (10,000 rpm) and stained with propidium iodide (PI, concentration of 10 μg/ml) for 30 minutes at 4° C. Thereafter, unbound propidium iodide was removed by centrifuge, and the problem of cell aggregation phenomenon was solved by adding physiological saline (PBS) in an amount of 1 ml.

[2] = Cytotoxicity in normal cell line (MTT); format: cell-based, human; conditions: human
Experimental: To determine the cytotoxicity of the peptides produced by the method of Example 1 in normal cell line, cytotoxicity was measured by using normal human keratinocyte cell line (HaCaT) and normal human fibroblast cell line (Hs27).
Specifically, normal human keratinocyte (HaCaT) cells and normal human fibroblast (Hs27) cells, which have been cultured in DMEM medium containing 10% FBS (fetal bovine serum), were aliquoted in a microtiter plate to have 1×10^4 cells per well. After culturing them for 24 hours, the cells were subjected to a treatment with LL37, LL37-1, LL37-2, LL37-3 or LL37-4 peptide, each at concentration of 0.5, 1, 2, 4, 8, 16 or 32 μM/well, followed by reaction for 24 hours in a 5% CO2 incubator. After culture, a reaction solution containing 5 mg/ml MTT (Thiazolyl Blue Tetrazolium Bromide) dissolved in phosphate buffered saline (PBS) was added in an amount of 10 μl to each well and the reaction was allowed to occur for 1 hour. After that, the supernatant was discarded, and, by dissolving MTT crystals that are formed by adding 200 μl DMSO (dimethyl sulfoxide), the absorbance at 570 nm was measured to determine the cell survival ability.

S. typhimurium KCTC 1925 = format: cell-based, Salmonella typhimurium; conditions: KCTC 1925, 18 h
Description: (§1) To compare the antimicrobial activity among the peptides produced by the method of Example 1, the inventors of the present invention measured the minimal growth inhibitory concentration (MIC), which is minimum concentration of the peptide not allowing any […] of bacterial cells.
(§2) Specifically, the bacterial strains described in the following Table 2 were purchased and cultured to a mid-log phase in MHB (Mueller Hinton Broth) medium. Then, after dilution to bacterial cell concentration of 2×10^5 cells/50 μl, the cells were inoculated to a microtiter plate (NUNC, USA). Thereafter, LL37-1, LL37-2, LL37-3 or LL37-4 peptide which has been synthesized in Example 1 above was subjected to serial dilution, ½ times for each, in a 96-well plate. After adding the peptides in an amount of 50 μl to the cell plate, the cells were cultured for 18 hours at 37° C. By using a microtiter plate reader (Merck Elisa reader, Germany), the absorbance was measured at a wavelength of 600 nm to determine the MIC value of each bacterial strain. As a control group, LL37 as a mother peptide was used and subjected to the same process as above to determine the MIC value of each strain.

E. coli ATCC 25922 = format: cell-based, Escherichia coli; conditions: ATCC 25922, 18 h
Description: as §1, §2

P. aeruginosa ATCC 27853 = format: cell-based, Pseudomonas aeruginosa; conditions: ATCC 27853, 18 h
Description: as §1, §2

S. aureus ATCC 25923 = format: cell-based, Staphylococcus aureus; conditions: ATCC 25923, 18 h
Description: as §1, §2

[3] = system: Human macrophage cells (U937) infected with Acinetobacter baumannii KCTC 2508; experiment: Expression of inflammatory cytokines, Western blot and real time RT-PCR; format: cell-based; conditions: U937 infected with A. baumannii KCTC 2508, peptide added 1 hour after infection, sample after 9 hours
Experimental: To see whether or not a change in expression of inflammatory cytokines in macrophage is caused by the peptides that are prepared by the method of above Example 1, determination was made by Western blot and real time reverse transcription polymerase chain reaction.
Specifically, Acinetobacter baumannii KCTC 2508 cells were cultured to a mid-log phase in MHB medium, and then diluted to a cell concentration of 1×10^7 cells/ml in physiological saline. Human macrophage cells (U937) were then infected with the resulting cells in time-dependent manner to yield the first sample, and another macrophage cells were infected with Acinetobacter baumannii KCTC 2508 cells, which have been diluted to a concentration of 1×10^7 cells, and added with, 1 hour after the infection, mother peptide LL37 or the homologous peptide to collect the second sample after 9 hours. Both collected samples were treated with cell lysis buffer to obtain the supernatant (sup) and pellet (lysate). Thereafter, by Western blot and real time reverse transcription polymerase chain reaction, a change in the expression level of inflammatory cytokines was examined.

Question: Which results are given for `CC[C@H](C)[C@H](NC(=O)[C@H](CCCNC(=N)N)NC(=O)[C@H](CCC(N)=O)NC(=O)[C@@H](NC(=O)[C@@H](NC(=O)[C@H](CCCNC(=N)N)NC(=O)[C@H](CCCCN)NC(=O)[C@H](Cc1ccccc1)NC(=O)[C@H](CCC(=O)O)NC(=O)[C@@H](N)CCCCN)[C@@H](C)CC)C(C)C)C(=O)N[C@@H](CCCCN)C(=O)N[C@@H](CCCCN)C(=O)N[C@@H](Cc1ccccc1)C(=O)N[C@@H](CC(C)C)C(=O)N[C@@H](CCCNC(=N)N)C(=O)N[C@@H](CC(N)=O)C(N)=O` [LL37-3, KEFKRIVQRIKKFLRN-NH2] (H-KEFKRIVQRIKKFLRN-NH2; N-terminus assumed)?
Answer: effect on bacteria membrane (PI fluorescence, flow cytometry) [1]: bacteria membrane was damaged; viability at 24 h, 0.5 µM ([2]; HaCaT keratinocyte cells): 96%; viability at 24 h, 1 µM ([2]; HaCaT keratinocyte cells): 100%; viability at 24 h, 2 µM ([2]; HaCaT keratinocyte cells): 101%; viability at 24 h, 4 µM ([2]; HaCaT keratinocyte cells): 98%; viability at 24 h, 8 µM ([2]; HaCaT keratinocyte cells): 98%; viability at 24 h, 16 µM ([2]; HaCaT keratinocyte cells): 104%; viability at 24 h, 32 µM ([2]; HaCaT keratinocyte cells): 104%; viability at 24 h, 0.5 µM ([2]; Hs27 fibroblast cells): 94%; viability at 24 h, 1 µM ([2]; Hs27 fibroblast cells): 92%; viability at 24 h, 2 µM ([2]; Hs27 fibroblast cells): 93%; viability at 24 h, 4 µM ([2]; Hs27 fibroblast cells): 90%; viability at 24 h, 8 µM ([2]; Hs27 fibroblast cells): 91%; viability at 24 h, 16 µM ([2]; Hs27 fibroblast cells): 93%; viability at 24 h, 32 µM ([2]; Hs27 fibroblast cells): 95%; Minimal inhibitory concentration (S. typhimurium KCTC 1925): 8 µM (≈ 16.8 µg/mL); Minimal inhibitory concentration (E. coli ATCC 25922): 32 µM (≈ 67.3 µg/mL); Minimal inhibitory concentration (P. aeruginosa ATCC 27853): 8 µM (≈ 16.8 µg/mL); Minimal inhibitory concentration (S. aureus ATCC 25923): 4 µM (≈ 8.41 µg/mL); expression level of HMGB-1 and late cytokine (IL-1b and TNF-α) [3]: increase in expression level of HMGB-1 and late cytokine is lower

Source: patent US11452758B2, “Antimicrobial peptide derived from LL37 peptide and uses thereof” (INDUSTRY-ACADEMIC COOPERATION FOUNDATION, CHOSUN UNIVERSITY, priority 2018, dated 2022)
